From patent publication US20240261261A1, “NEW FORMULATION FOR INJECTION COMPRISING 1-(5-(2,4-DIFLUOROPHENYL)-1-((3-FLUOROPHENYL)SULFONYL)-4-METHOXY-1H-PYRROL-3-YL)-N-METHYLMETHANAMINE” (DAEWOONG PHARMACEUTICAL CO., LTD., priority 2021, published 2024) come the findings set out here.

This data set is described as follows: Water solubility. The data set is classed as physicochemical. Conditions: aqueous buffer, pH 6.8, the substance or its hydrochloride.

Molecules are shown by their SMILES.

One may read the solubility as how much of the substance goes into solution per volume. With `CNCc1cn(S(=O)(=O)c2cccc(F)c2)c(-c2ccc(F)cc2F)c1OC` [Chemical Formula 1, 1-(5-(2,4-difluorophenyl)-1-((3-fluorophenyl)sulfonyl)-4-methoxy-1H-pyrrol-3-yl)-N-methylmethanamine], the solubility came out at 2170 µg/mL.
